{"source": "patent US9663473B2", "about": "(Actelion Pharmaceuticals Ltd, priority 2013, dated 2017)", "note": "pEC50: −log10 of the molar value. Structures can show the parent of a compound that is named as a salt.", "data": [{"molecular_target": "T1, recombinant human ALX receptor (Homo sapiens, UniProt P25090)", "T1 construct": "expressed in transfected cells; host or cells: HEK293 (HEK293-hALXR-Gα16)", "T1 sequence (P25090 1-351)": "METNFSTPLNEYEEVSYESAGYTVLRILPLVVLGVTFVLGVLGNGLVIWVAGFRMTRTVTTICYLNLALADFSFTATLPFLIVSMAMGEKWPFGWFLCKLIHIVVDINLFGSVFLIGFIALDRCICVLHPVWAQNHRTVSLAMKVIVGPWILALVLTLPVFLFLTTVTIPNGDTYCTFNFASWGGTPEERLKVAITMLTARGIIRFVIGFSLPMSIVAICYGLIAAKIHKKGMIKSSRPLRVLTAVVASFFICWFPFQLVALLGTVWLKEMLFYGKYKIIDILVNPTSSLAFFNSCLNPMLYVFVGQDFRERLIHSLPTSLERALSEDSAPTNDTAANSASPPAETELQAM", "test": "Intracellular calcium measurements (FLIPR), ALX receptor agonistic activity", "type": "cell-based", "settings": "HEK293-hALXR-Gα16 cells, Fluo-4 calcium signal, normalized to WKYMVm 10 nM", "how_it_was_run": "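HEK293 cells co-expressing human ALX receptor and Gα16 were loaded with 1 μM Fluo-4 AM for 60 min at 37° C., then exposed to serially diluted compounds on FLIPR Tetra. Peak fluorescence above baseline (ex 488/em 540 nm) was normalized to 10 nM WKYMVm as high control.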", "values": [{"molecule": "COc1ccc(C[C@@H](NC(=O)NCC2CCNCC2)c2nc3ccccc3[nH]2)cc1", "note": "[Example 149, (R)-1-(1-(1H-Benzo[d]imidazol-2-yl)-2-(4-methoxyphenyl)ethyl)-3-(piperidin-4-ylmethyl)urea]", "pEC50": 6.77}, {"molecule": "CCc1ccc(CC(NC(=O)N[C@H]2CC[C@H](O)CC2)c2nc3cc(F)ccc3[nH]2)cc1", "note": "(single isomer, unassigned; ent-1) [Example 368, 1-(2-(4-Ethylphenyl)-1-(5-fluoro-1H-benzo[d]imidazol-2-yl)ethyl)-3-(trans-4-hydroxycyclohexyl)urea (ent-1)]", "pEC50": 8.74}, {"molecule": "COc1ccc(C[C@@H](NC(=O)NC2(c3ccc(Br)cc3)CC2)c2nc3ccccc3[nH]2)cc1", "note": "[Example 340, (R)-1-(1-(1H-Benzo[d]imidazol-2-yl)-2-(4-methoxyphenyl)ethyl)-3-(1-(4-bromophenyl)cyclopropyl)urea]", "pEC50": 6.57}, {"molecule": "(R)—N-(1-(1H-Benzo[d]imidazol-2-yl)-2-(4-methoxyphenyl)ethyl)-4-acetylpiperazine-1-carboxamide [Example 135]", "pEC50": 6.48}, {"molecule": "COc1ccc(CC(NC(=O)Nc2ccnn2-c2ccncc2)c2nc3ccccc3[nH]2)cc1", "note": "(stereo not shown) [Example 409, 1-(1-(1H-benzo[d]imidazol-2-yl)-2-(4-methoxyphenyl)ethyl)-3-(1-(pyridin-4-yl)-1H-pyrazol-5-yl)urea]", "pEC50": 6.44}, {"molecule": "COc1cc(F)c(CC(NC(=O)N[C@H]2CC[C@](C)(O)CC2)c2nc3ccccc3[nH]2)cc1F", "note": "(mixture of isomers) [Example 250, 1-(1-(1H-Benzo[d]imidazol-2-yl)-2-(2,5-difluoro-4-methoxyphenyl)ethyl)-3-(trans-4-hydroxy-4-methylcyclohexyl)urea]", "pEC50": 8.14}, {"molecule": "COCCNC(=O)N[C@H](Cc1ccc(OC)cc1)c1nc2ccccc2[nH]1", "note": "[Example 59, (R)-1-(1-(1H-Benzo[d]imidazol-2-yl)-2-(4-methoxyphenyl)ethyl)-3-(2-methoxyethyl)urea hydrochloride]", "pEC50": 6.50}, {"molecule": "COc1ccc(CC(NC(=O)NC2CCC(C)(O)CC2)c2nc3ccccc3[nH]2)c(F)c1", "note": "(single isomer, unassigned; ent-1) [Example 311, 1-(1-(1H-Benzo[d]imidazol-2-yl)-2-(2-fluoro-4-methoxyphenyl)ethyl)-3-(trans-4-hydroxy-4-methylcyclohexyl)urea (ent-1)]", "pEC50": 8.44}, {"molecule": "COc1ccc(CC(NC(=O)N[C@H]2CC[C@H](O)CC2)c2nc3cc(Br)c(Br)cc3[nH]2)cc1", "note": "(single isomer, unassigned; ent-1) [Example 425, 1-(1-(5,6-dibromo-1H-benzo[d]imidazol-2-yl)-2-(4-methoxyphenyl)ethyl)-3-(trans-4-hydroxycyclohexyl)urea (ent-1)]", "pEC50": 6.92}, {"molecule": "COc1ccc(C[C@@H](NC(=O)N[C@H](C)C2CCCCC2)c2nc3ccccc3[nH]2)cc1", "note": "[Example 383, 1-((R)-1-(1H-Benzo[d]imidazol-2-yl)-2-(4-methoxyphenyl)ethyl)-3-((R)-1-cyclohexylethyl)urea]", "pEC50": 5.75}, {"molecule": "COc1ccc(C[C@@H](NC(=O)NC2CC(C)(C)NC(C)(C)C2)c2nc3ccc(C#N)cc3[nH]2)cc1", "note": "[Example 153, (R)-1-(1-(6-Cyano-1H-benzo[d]imidazol-2-yl)-2-(4-methoxyphenyl)ethyl)-3-(2,2,6,6-tetramethylpiperidin-4-yl)urea]", "pEC50": 8.06}, {"molecule": "COc1ccc(C[C@@H](NC(=O)Nc2cccnc2)c2nc3ccccc3[nH]2)cc1", "note": "[Example 315, (R)-1-(1-(1H-Benzo[d]imidazol-2-yl)-2-(4-methoxyphenyl)ethyl)-3-(pyridin-3-yl)urea]", "pEC50": 6.52}, {"molecule": "COc1ccc(CC(C)(NC(=O)N[C@H]2CC[C@H](O)CC2)c2nc3ccccc3[nH]2)cc1", "note": "(relative stereo) [Example 1, 1-(2-(1H-Benzo[d]imidazol-2-yl)-1-(4-methoxyphenyl)propan-2-yl)-3-(trans-4-hydroxycyclohexyl)urea]", "pEC50": 6.82}]}]}
